Series [1] has as its system mouse ileal or jejuneal segments. Nature of the series: Myographic isometric contractility of intestinal segments during photoswitching. From the text:
Basal tension was then restored under 447-nm light and 365/447-nm cycling could be repeated many times (Fig. 6e). […]
7 Spontaneous motility and isometric contractility (Fig. 6)
After sacrificing mice in accordance to the European (Council Directive 2010/63/EU) and German guidelines for the welfare of experimental animals, the abdomen was opened, and intestinal loops were mobilised. Ileal segments were obtained starting 10 mm from the ileocoecal junction. Ileal segments with a length of 3 mm for myography experiments or with a length of 8-12 mm for observation of spontaneous movement were cut out and flushed with carbogen-equilibrated KBRS.
The adventitial layer was carefully peeled off, using a pair of forceps. The remaining intestinal segments, comprising mucosal, submucosal and muscular layers were placed in carbogen-saturated KBRS and immediately used for the experiments. Throughout these experiments, "wild-type" mice have the same genetic background as the knockout mice. For myography experiments, intestinal segments were prepared from mice at the age of 4-7 months. Wild-type control mice were matched in age to the respective knock-out animals.
Mice were housed in groups of two to three animals under the approved standard conditions including a 12 h light-dark-regime and access to food and water ad libitum (see above). Strains for testing intestinal contractility were C57BL6/N mice (from Charles River) and homozygous TRPC5 or TRPC4 single knockout mice,80 both back-crossed on the C57BL6/N background for at least five generations. All mice were of male sex. […]
Myographic isometric contractility: The contractile forces exerted by the circular layer of intestinal segments were quantitatively assessed by measurement in a 4-channel calibrated multi myograph device (DMT 620M, Danish Myo Technology, Hinnerup, Denmark), with digital data acquisition controlled by Labchart software (Version v8; ADINSTRUMENTS). Heated (37°C) bath chambers were filled with carbogen-equilibrated KBRS, and typically 3-mm ileal segments were manoeuvred over custom-made u-shaped hooks that prevented the mucosal layer from prolapsing on the edges. A pre-tension of typically 1.5-2 mN/mm was applied, and ileal segments were allowed […]
solvent (0.5% DMSO). After renewing the pre-tension, the recording of isometric contractions was started, while applying alternating illuminations typically at 365 nm and 447 nm, or else at 385 nm and 470 nm, (typically 10 s exposure each) over typically 9-11 cycles, with no additional illumination […]
segments (N/m) (Fig. 6d-h, Supplementary Fig. 23c-g).
7.1.1 First Saturate with Ligand, Then Dial the Wavelength
Even in the usually tricky situation that a targeted biological effect only occurs when a protein target is partially but not fully stimulated (here: physiology-like contractility as in Fig. 6e, with the overlay of the normal oscillatory frequncy), ideal efficacy switches are still perfectly capable of addressing them robustly. What is possible in the rare case that only fixed operating wavelengths may be available [e.g. in Fig. 6ef, if only 365 nm and 447 nm would be available], would be to use a sub-

Series [2] in a line: Stability in DTT-containing buffers (HPLC analysis). Format: physicochemical. Particulars: confirmed by HPLC analysis. From the text:
Müller, Niemeyer, et al., Schaefer & Thorn-Seshold 2025: Ideal Efficacy Photoswitching of TRPC4/5 in Tissue 1.4 Supplementary Note 4: Structural Biology and TRP Selectivity
We prepared and acquired TRPC5:E/Z-AzHC samples in one lab, and TRPC4:E/Z-AzPico independently in another, which was useful for several plausibility checks. (1) There are additional lipid densities in the pockets that are present in both TRPC4 and TRPC5, and the changes to the lipid densities in the EM maps between E and Z isomers are similar in TRPC4 and TRPC5 as well: so these changes are not dependent on protein, nature of amphipol used, or lab in which the data were obtained/processed, but are rather inherent features of the system. (2) The positions of the distal rings which are much less-well-resolved than the rest of the ligand, were independently best aligned for the E and Z isomers, and in each case found to be Z-buried vs. E-projected, which gives more confidence in this structure-based analysis. (3) Identical deleterious effects of DTT were found in each lab, and removing it removed those problems.
1.4.1 Detailed Commentary: hTRPC5:E/Z-AzHC […]
We determined high-resolution structures of hTRPC5:(E)-AzHC (2.60 Å) and hTRPC5:(Z)-AzHC (2.90 Å) without applying symmetry (Fig. 3; Supplementary Fig. 4-5 and 15-18; Supplementary […]

Turning to `Cn1c(=O)n(CCCO)c(=O)c2c1nc(Oc1ccc(N=Nc3ccccc3)c(OC(F)(F)F)c1)n2Cc1ccc(Cl)cc1` [AzPico], in series [1] (3 nM, 365/447 nm), the “Response of segments of TRPC4-deficient mice” value is reported as “never responded”. Also, in series [1] (3 nM, wild-type segments), the “Increase of oscillatory forces under 365 nm” value turned out to be 1.9 ×. Further, the “Time to recovery of oscillatory contractions under 447 nm” value in series [1] (30 nM, after 365 nm rictus-like state) is 10 to 30 s. In addition, the “Effect of 365 nm at moderate to high concentration” value in series [1] (30 nM, 365 nm) is “rictus-like intestinal tensioning and rundown”. Moreover, the “Photoswitchability after medium replacement” value in series [1] (300 nM preincubated 2 h, then washed 2 h, 385/470 nm) is “remain perfectly photoreversibly operable”. In addition, the “Effect of 385 nm at saturating concentration” value in series [1] (300 nM, 385 nm) is reported as “only partial channel activation”. Also, the “Tonic and oscillatory force photoresponses in TRPC5-deficient mice vs matched control mice” value in series [1] (365/447 nm) was “indistinguishable”.

As to `Cn1c(=O)n(CCCO)c(=O)c2c1nc(Oc1ccc(N=Nc3ccccc3)c(Cl)c1)n2Cc1ccc(Cl)cc1` [AzHC], in series [2], the “Stability in DTT-containing buffers” value is reported as “degrades”.

The record behind these values is publication PMC12858405, “Ideal efficacy photoswitching for chromocontrol of TRPC4/5 channel functions in live tissues” (Nature Chemical Biology, 2026).
